This note sets out measurements from patent US7405228B2, “Antibacterial cyano-(substituted)-methylenepiperidinophenyl oxazolidinones targeting multiple ribonucleoprotein sites” (Wockhardt Limited, priority 2002, dated 2008).

Structures are written as SMILES.

Turning to `N#CC=C1CCN(c2ccc(N3C[C@H](CN=C=O)OC3=O)cc2F)CC1` (stereo in doubt), the melting point was in the range of 172 to 174 °C. As for `N#CC=C1CCN(c2ccc(N3CC(CN=[N+]=[N-])OC3=O)cc2)CC1` (stereo in doubt) [Example 1, (S)-{3-[4-(4-cyanomethylidene-piperidin-1-yl)-phenyl]-2-oxo-oxazolidin-5-ylmethyl}-azide], the figure is 80 to 82 °C; as for `N#CC=C1CCN(c2ccc(N3CC(Cn4cc(C#N)nn4)OC3=O)cc2)CC1` (stereo in doubt) [Example 5, (S)-1-{3-[4-(4-cyanomethylidene-piperidin-1-yl)-phenyl]-2-oxo-oxazolidin-5-ylmethyl}-4-cyano-1,2,3-triazole], 186 to 188 °C; as for `N#CC=C1CCN(c2ccc(N3CC(CN=[N+]=[N-])OC3=O)cc2F)CC1` (stereo in doubt) [Example 16, (S)-{3-[4-(4-cyanomethylidene-piperidin-1-yl)-3-fluorophenyl]-2-oxo-oxazolidin-5-ylmethyl}-azide], 112 to 114 °C. As for `N#CC=C1CCN(c2ccc(N3C[C@H](CNC(=O)C4COC(=O)N4)OC3=O)cc2F)CC1` (stereo in doubt) [Example 24, (S)-N-{3-[4-(4-cyanomethylidene-piperidin-1-yl)-3-fluorophenyl]-2-oxo-oxazolidin-5-ylmethyl}-2-oxo-oxazolidin-4-yl-carboxamide], the figure is 145 °C; as for `N#CC=C1CCN(c2ccc(N3C[C@H](CNC(=O)C4CCCN4)OC3=O)cc2F)CC1` (stereo in doubt) [Example 25, (S)-N-{3-[4-(4-cyanomethylidene-piperidin-1-yl)-3-fluorophenyl]-2-oxo-oxazolidin-5-ylmethyl}-pyrrolidin-2-carboxamide], 155 °C. The same measure for `CCOC(=O)c1cn(CC2CN(c3ccc(N4CCC(=CC#N)CC4)c(F)c3)C(=O)O2)nn1` (stereo in doubt) [Example 26, (S)-1-{3-[4-(4-cyanomethylidene-piperidin-1-yl)-3-fluorophenyl]-2-oxo-oxazolidin-5-ylmethyl}-4-carboethoxy-1,2,3-triazole]: 164 to 166 °C; for `CCOC(=O)c1cnnn1CC1CN(c2ccc(N3CCC(=CC#N)CC3)c(F)c2)C(=O)O1` (stereo in doubt) [Example 27, (S)-1-{3-[4-(4-cyanomethylidene-piperidin-1-yl)-3-fluorophenyl]-2-oxo-oxazolidin-5-ylmethyl}-5-carboethoxy-1,2,3-triazole]: 70 to 72 °C. As for `N#CC=C1CCN(c2ccc(N3CC(Cn4cc(C#N)nn4)OC3=O)cc2F)CC1` (stereo in doubt) [Example 28, (S)-1-{3-[4-(4-cyanomethylidene-piperidin-1-yl)-3-fluorophenyl]-2-oxo-oxazolidin-5-ylmethyl}-4-cyano-1,2,3-triazole], the melting point was in the range of 78 to 80 °C. As for `N#CCC1CCN(c2ccc(N3CC(CN=[N+]=[N-])OC3=O)cc2)CC1` (stereo in doubt) [Example 122, (S)-{3-[4-(4-cyanomethyl-piperidin-1-yl)-phenyl]-2-oxo-oxazolidin-5-ylmethyl}-azide], the figure is 85 to 86 °C; as for `CCOC(=O)c1cn(CC2CN(c3ccc(N4CCC(CC#N)CC4)cc3)C(=O)O2)nn1` (stereo in doubt) [Example 123, (S)-1-{3-[4-(4-cyanomethyl-piperidin-1-yl)-phenyl]-2-oxo-oxazolidin-5-ylmethyl}-4-carboethoxy-1,2,3-triazole], 198 to 200 °C. `N#CCC1CCN(c2ccc(N3CC(Cn4cc(C(N)=O)nn4)OC3=O)cc2F)CC1` (stereo in doubt) [Example 127, (S)-1-{3-[4-(4-cyanomethyl-piperidin-1-yl)-3-fluorophenyl]-2-oxo-oxazolidin-5-ylmethyl}-4-carboxamido-1,2,3-triazole] yielded a melting point of 248 to 250 °C. As for `N#CCC1CCN(c2ccc(N3CC(Cn4cc(C#N)nn4)OC3=O)cc2F)CC1` (stereo in doubt) [Example 128, (S)-1-{3-[4-(4-cyanomethyl-piperidin-1-yl)-3-fluorophenyl]-2-oxo-oxazolidin-5-ylmethyl}-4-cyano-1,2,3-triazole], the figure is 200 to 202 °C; as for `CS(=O)(=O)OC[C@H]1CN(c2ccc(N3CCC(=CC#N)CC3)cc2)C(=O)O1` [Example 6, (R)-{3-[4-(4-cyanomethylidene-piperidin-1-yl)-phenyl]-2-oxo-oxazolidin-5-ylmethyl}-methanesulphonate], 120 to 122 °C. As for `N#CC=C1CCN(c2ccc(N3C[C@H](CNC=O)OC3=O)cc2F)CC1` [Example 8, (S)-N-{3-[4-(4-cyanomethylidene-piperidin-1-yl)-3-fluorophenyl]-2-oxo-oxazolidin-5-ylmethyl}-formamide], the figure is 183 to 184 °C; as for `CC(C)(C)CC(=O)NC[C@H]1CN(c2ccc(N3CCC(=CC#N)CC3)c(F)c2)C(=O)O1` [Example 12, (S)-N-{3-[4-(4-cyanomethylidene-piperidin-1-yl)-3-fluorophenyl]-2-oxo-oxazolidin-5-ylmethyl}-3,3-dimethylbutanamide], 210 to 212 °C; as for `N#CC=C1CCN(c2ccc(N3C[C@H](CNC(=O)CO)OC3=O)cc2F)CC1` [Example 13, (S)-N-{3-[4-(4-cyanomethylidene-piperidin-1-yl)-3-fluorophenyl]-2-oxo-oxazolidin-5-ylmethyl}-2-hydroxyacetamide], 68 to 70 °C. The same measure for `CC(C)(C)C(=O)OCC(=O)NC[C@H]1CN(c2ccc(N3CCC(=CC#N)CC3)c(F)c2)C(=O)O1` [Example 14, (S)-N-{3-[4-(4-cyanomethylidene-piperidin-1-yl)-3-fluorophenyl]-2-oxo-oxazolidin-5-ylmethyl}-2-pivolyloxyacetamide]: 91 to 93 °C; for `C=CCN(C#N)C[C@H]1CN(c2ccc(N3CCC(=CC#N)CC3)c(F)c2)C(=O)O1` [Example 22, (S)-{N-{3-[4-(4-cyanomethylidene-piperidin-1-yl)-3-fluorophenyl]-2-oxo-oxazolidin-5-ylmethylamino}N-cyano}-prop-2-ene]: 111 to 113 °C. The compound `N#CC=C1CCN(c2ccc(N3C[C@H](CNC(=O)CC#N)OC3=O)cc2F)CC1` [Example 23, (S)-N-{3-[4-(4-cyanomethylidene-piperidin-1-yl)-3-fluorophenyl]-2-oxo-oxazolidin-5-ylmethyl}-2-cyanoacetamide] registered a melting point of 150 to 152 °C. `N#CC=C1CCN(c2ccc(N3C[C@H](CNC(=O)C(F)F)OC3=O)cc2F)CC1` [Example 29, (S)-N-{3-[4-(4-cyanomethylidene-piperidin-1-yl)-3-fluorophenyl]-2-oxo-oxazolidin-5-ylmethyl}-difluoroacetamide] yielded a melting point of 162 to 164 °C. For `N#CC=C1CCN(c2ccc(N3C[C@H](CNC(=O)C(Cl)(Cl)Cl)OC3=O)cc2F)CC1` [Example 33, (S)-N-{3-[4-(4-cyanomethylidene-piperidin-1-yl)-3-fluorophenyl]-2-oxo-oxazolidin-5-ylmethyl}-trichloroacetamide], the melting point lay in the range of 142 to 144 °C.

`N#CC=C1CCN(c2ccc(N3C[C@H](CNC(=O)CBr)OC3=O)cc2F)CC1` [Example 34, (S)-N-{3-[4-(4-cyanomethylidene-piperidin-1-yl)-3-fluorophenyl]-2-oxo-oxazolidin-5-ylmethyl}-bromoacetamide] had a melting point of 160 to 162 °C. Consider `N#CC=C1CCN(c2ccc(N3C[C@H](CNC(=O)CI)OC3=O)cc2F)CC1` [Example 36, (S)-N-{3-[4-(4-cyanomethylidene-piperidin-1-yl)-3-fluorophenyl]-2-oxo-oxazolidin-5-ylmethyl}-iodoacetamide], for which the melting point is 178 to 180 °C. The same measure for `C[C@H](N)C(=O)NC[C@H]1CN(c2ccc(N3CCC(=CC#N)CC3)c(F)c2)C(=O)O1` [Example 41, (2S, 5S)-{N-{3-[4-(4-cyanomethylidene-piperidin-1-yl)-3-fluorophenyl]-2-oxo-oxazolidin-5-ylmethyl}-propionamid-2-yl}-amine]: 103 to 105 °C. The same measure for `N#CC=C1CCN(c2ccc(N3C[C@H](CNC(=O)C(N)CO)OC3=O)cc2F)CC1` (stereo partly drawn) [Example 42, (2S, 5S)-{N-{3-[4-(4-cyanomethylidene-piperidin-1-yl)-3-fluorophenyl]-2-oxo-oxazolidin-5-ylmethyl}-3-hydroxypropionamid-2-yl}-amine]: 88 to 90 °C; for `N#CC=C1CCN(c2ccc(N3C[C@H](CNC(=O)[C@@H](N)Cc4c[nH]cn4)OC3=O)cc2F)CC1` [Example 43, (2S, 5S){N-{3-[4-(4-cyanomethylidene-piperidin-1-yl)-3-fluorophenyl]-2-oxo-oxazolidin-5-ylmethyl}-3-(imidazol-4-yl)-propionamid-2-yl}-amine]: 93 to 96 °C. As for `N#CC=C1CCN(c2ccc(N3C[C@H](CN4C(=O)c5ccccc5C4=O)OC3=O)cc2F)CC1` [Example 44, (S)-N-{3-[4-(4-cyanomethylidene-piperidin-1-yl)-3-fluorophenyl]-2-oxo-oxazolidin-5-ylmethyl}-1-pthalamide], the figure is 183 to 185 °C; as for `N#CC=C1CCN(c2ccc(N3C[C@H](CNC(=S)NCCO)OC3=O)cc2F)CC1` [Example 48, (S)-N-{3-[4-(4-cyanomethylidene-piperidin-1-yl)-3-fluorophenyl]-2-oxo-oxazolidin-5-ylmethyl}-2-hydroxyethylthiocarbamide], 168 to 170 °C. With `N#CC=C1CCN(c2ccc(N3C[C@H](CNC(=S)CN)OC3=O)cc2F)CC1` [Example 49, (S)-N-{3-[4-(4-cyanomethylidene-piperidin-1-yl)-3-fluorophenyl]-2-oxo-oxazolidin-5-ylmethylamino}-thiocarbonylmethylamine], the melting point was in the range of 157 to 158 °C. The same measure for `CNC(=S)NC[C@H]1CN(c2ccc(N3CCC(=CC#N)CC3)c(F)c2)C(=O)O1` [Example 52, (S)-N-{3-[4-(4-cyanomethylidene-piperidin-1-yl)-3-fluorophenyl]-2-oxo-oxazolidin-5-ylmethyl}-methylthiocarbamide]: 191 to 192 °C.
